The values below are quoted from earlier work in patent publication US20130316017A1, “Oral Composition for the Treatment of Acne” (priority 2012, published 2013).

For data set [1] the following is noted: short-term (0-3 hours).
A further data set relates to sebum. To be noted: in vivo.

As to `O=C(/C=C/C=C/c1ccc2c(c1)OCO2)N1CCCCC1` [Piperine], the “short-term availability of curcumin and any other compound in the composition” value in data set [1] is “improve”.

Consider `CC(C)(CO)[C@@H](O)C(=O)NCCC(=O)O` [vitamin B5], for which the reduction of sebum entry with sebum is recorded as “reduce sebum”.
